From patent EP2266963A1, “Fluorogenic peptidase substrate” (ECOLE NORMALE SUPERIEURE DE LYON, priority 2009, dated 2010)

Assays:
[1] = system: leucyl aminopeptidase; experiment: Time-dependent fluorescence signal evolution with pure enzyme in LB medium, with or without inhibitor; assay type: biochemical; conditions: 37°C
Protocol: Scheme 3 presents the reaction cascade initiated by cleavage of the substrate 1 or 2 by a target peptidase. [drawing 5] • Figure 1 (ordinate in arbitrary fluorescence units a.u.) represents the emission spectra (λexc = 365 nm) of substrate 2 (20 µM) before (curve a) and after incubation with leucyl aminopeptidase for 1 h (curve b) at 25 °C in Tris-HCl buffer. The experiment was monitored with a standard multi-well plate fluorescence spectrophotometer (Spectramax Gemini by Molecular Devices). • Figure 2 presents a fluorogenic test (λexc = 365 nm, λem = 495 nm) at 25 °C for the activity of leucyl aminopeptidase in Tris-HCl (25 mM, pH 7.4) using 38 µM of substrate 1 or 2 , and 0.02 U mL^-1 of leucyl aminopeptidase. The following curves for time-dependent fluorescence signal evolution were obtained : (a) substrate 2 with enzyme, (b) substrate 1 with enzyme (c) substrate 2 without enzyme but with added bovine serum albumin (0.1 mg mL^-1), (d) substrate 1 without enzyme but with added bovine serum albumin (0.1 mg mL^-1). • Figure 3 presents the time-dependent signal evolution obtained with pure enzyme in complex LB (Lysogeny broth) medium (from Fisher, "LB Broth Lennox", ref 240230) rather than in pure buffer (TRIS-HCl).
(§1) Substrate 2 concentration : 6 µM; enzyme : leucyle aminopeptidase (0.01 U); 37°C; LB medium; emission wavelength : 495 nm; Spectramax Gemini from Molecular Device.
Figure 4 presents the time-dependent signal evolution obtained with pure enzyme in LB medium in the presence or absence of a standard aminopeptidase inhibitor (bestatine).
Substrate 2 concentration : 6 µM; enzyme : leucyle aminopeptidase (0.01 U); inhibitor concentration : 10 nM; 37°C; LB medium; emission wavelength : 495 nm ;

[2] = system: leucyl aminopeptidase; experiment: Fluorogenic test for leucyl aminopeptidase activity in Tris-HCl buffer; assay type: biochemical; conditions: Figure 2 curve a; substrate with enzyme; TRIS-HCl buffer 25 mM pH 7.4; 38 µM substrate; 0.02 U mL^-1 enzyme; 25 °C; λexc 365 nm, λem 495 nm
Protocol: Column chromatography was performed using silicagel Si 60 (40-63 µm). ^1H and ^13C NMR spectra were recorded at 200.13 MHz, 50.13 MHz, respectively. Chemical shifts (δ) are reported in ppm (s = singlet, d= doublet, t = triplet, m = multiplet, br = broad) and quoted with reference to tetramethyl silane or from solvent signals. NMR coupling constants (J) are reported in Hertz. Fluorescence assays were carried out in black roundbottom polypropylene 96-well-plates (NUNCLONE, Nunc Inc.) and recorded on a microplate spectrofluorimeter (Gemini XPS by Molecular Devices).
Scheme 3 presents the reaction cascade initiated by cleavage of the substrate 1 or 2 by a target peptidase. [drawing 5] • Figure 1 (ordinate in arbitrary fluorescence units a.u.) represents the emission spectra (λexc = 365 nm) of substrate 2 (20 µM) before (curve a) and after incubation with leucyl aminopeptidase for 1 h (curve b) at 25 °C in Tris-HCl buffer. The experiment was monitored with a standard multi-well plate fluorescence spectrophotometer (Spectramax Gemini by Molecular Devices). • Figure 2 presents a fluorogenic test (λexc = 365 nm, λem = 495 nm) at 25 °C for the activity of leucyl aminopeptidase in Tris-HCl (25 mM, pH 7.4) using 38 µM of substrate 1 or 2 , and 0.02 U mL^-1 of leucyl aminopeptidase. […]

[3] = Spontaneous degradation of substrate in LB medium without enzyme or cells (background fluorescence signal); assay type: physicochemical; conditions: 37°C, emission 495 nm
Protocol: as §1
(§2) Substrate 2 concentration : 6 µM; bacterial cell line : DH5a (Invitrogen); 37°C; LB medium; emission wavelength : 495 nm. Substrate 2 is added during the exponential growth phase at an absorbance of 0.6 to 0.8.

[4] = system: bacterial cell line : DH5a; experiment: Incubation of substrate with bacterial cells at wild-type aminopeptidase level in LB medium; assay type: cell-based, E-Coli; conditions: Figure 5, 6 µM substrate added in exponential growth phase (absorbance 0.6 to 0.8), 37°C, emission 495 nm
Protocol: as §2

## CC(C)C[C@H](NC(=O)[C@@H](O)[C@H](N)Cc1ccccc1)C(=O)O [inhibitor (I), bestatine, reference compound]
[1]; Figure 4, inhibitor 10 nM, 6 µM substrate 2, enzyme 0.01 U
  effect of inhibitor on signal evolution: a delay in signal evolution can be detected

## CC(C)C[C@H](N)C(=O)NCCC(C)(C)C(=O)OCOc1ccccc1-c1nc2ccccc2c(=O)[nH]1 [substrate 2]
[2]
  time at which fluorescence signal reaches a plateau: 0.5 h
[1]; Figure 3, LB+E+substrate 2, 6 µM substrate, enzyme 0.01 U, emission 495 nm
  time at which fluorescence signal reaches a plateau: approximately 1 hour
[1]; Figure 4, LB+E+I+substrate 2, inhibitor bestatine 10 nM, 6 µM substrate, enzyme 0.01 U
  time at which signal reaches the same level as the uninhibited reaction: 2.5 h
[1]; Figure 4, LB+E+substrate 2, no inhibitor, 6 µM substrate, enzyme 0.01 U, emission 495 nm
  time at which fluorescence signal reaches a plateau (uninhibited reaction): about 1.5 h
[3]; Figure 3, LB+substrate 2, 6 µM substrate
  time at which signal plateaus in the absence of enzyme: about 12 hours
[3]; Figure 5, LB + substrate 2, no cells, 6 µM substrate
  time at which signal reaches a plateau through slow degradation of the substrate: 10 h
[4]
  time at which signal reaches a plateau on incubation with cells: 2.5 h
